Laboratory results reported in patent US11684617B2, “Methods of diagnosing and treating ADHD in biomarker positive subjects” (The Children's Hospital of Philadelphia, priority 2017, dated 2023).
“And” between values parts separate entries of the source, which are not always exact repeats. Equal values may be shown once.

Experiments:
[1] = prior human studies; cited from earlier work
[2] = tested on: group I and group II/III mGluRs; conditions: in vitro studies (Hirouchi 2000); cited from earlier work
[3] = tested on: CNV-positive adolescents with moderately severe ADHD; experiment: SAGA Phase 2 study: ADHD-RS-5 total score change from baseline (LOCF); assay type: in vivo, human; parameters: Response (% reduction in ADHD-RS score at endpoint from baseline): concentration or dose not given beside the values; conditions: for Response (change from baseline in ADHD RS-5 total score): Table 19
Excerpt: Subjects received randomized treatment with either NFC-1 or placebo. Subjects had ADHD as defined by the Diagnostic and Statistical Manual of Mental Disorders, 5th edition (DSM-5) and Version 5 of the Attention Deficit Hyperactivity Disorder Rating Scale (ADHD RS-5) >28 at Baseline with or without conventional ADHD therapy.
The study was a multicenter, Phase 2, double-blind, randomized, placebo-controlled, parallel-group, dose-optimization study. The study enrolled adolescents 12-17 yrs (inclusive) with ADHD defined by DSM-5 criteria.
Subjects were CNV positive for a CNVs in at least one of the 273 Tier 1 or Tier 2 glutamatergic network genes of interest as listed in Table 1 or 2. These subjects positive for a CNV may also be termed “biomarker positive.”
(§1) The maximum dose was 400 mg BID or placebo.
Efficacy was assessed by the ADHD RS-5, CGI-I, CGI-S, the Adolescent Sleep Hygiene Scale (ASHS), and the Screen for Childhood Anxiety-related Emotional Disorders (SCARED).
The primary efficacy endpoint was the change from baseline in ADHD-RS-5 total score to end of study (last observation carried forward, LOCF) in Intent-to-Treat (ITT) population. The ITT population consisted of 101 patients randomized to NFC-1 or placebo.

[4] = tested on: CNV-positive adolescents with moderately severe ADHD; experiment: SAGA Phase 2 study: tolerability/safety, treatment-emergent adverse events (safety population); conditions: safety population; NFC-1 n = 47
[5] = tested on: CNV-positive adolescents with moderately severe ADHD; experiment: SAGA Phase 2 study: remission (ADHD-RS-5 <=18, CGI-I 1, composite); assay type: in vivo, human; conditions: endpoint; data not shown
Protocol: as §1
The definition of a “remission” in this study was a response at endpoint of:
A) ADHD-RS-5 Total score ≤18; • B) CGI-I score of 1. OR • C) Composite (both A and B)

[6] = tested on: CNV-positive adolescents with moderately severe ADHD; experiment: SAGA Phase 2 study: treatment response (responder: >=30% ADHD-RS-5 reduction, CGI-I 1 or 2, composite); assay type: in vivo, human; conditions: for Responder? (Y/N): Table 19
Protocol: as §1
Treatment response was evaluated by measurement of responders and remission. The definition of a “responder” in this study was a response at endpoint of:
A) ≥30% reduction from Baseline in ADHD-RS-5 Total score; • B) CGI-I score of 1 (very much improved) or 2 (much improved); OR • C) Composite (both A and B)
Throughout, the “Response” columns represent the % reduction in ADHD-RS score at endpoint from baseline. […]

[7] = tested on: CNV-positive adolescents with moderately severe ADHD; conditions: in vivo
[8] = tested on: dementia-related cognitive impairment; conditions: cited from earlier work
animal models = conditions: cited from earlier work
pediatric ADHD subjects = pediatric ADHD subjects (Akhundian 2001); cited from earlier work
[9] = NFC-1-treated patient with CNV in ADRA2A
[10] = NFC-1-treated patient with CNV in CA8
[11] = NFC-1-treated patient with CNV in GRM5
[12] = NFC-1-treated patient with CNV in SNCA
[13] = study end (LOCF), 8-Gene Subset including CNTN4, NFC-1 BID n = 17, p <0.0001 vs placebo
[14] = study end (LOCF), CNTN4 Subset, NFC-1 BID n = 6, p <0.01 vs placebo
[15] = treatment response at endpoint (ITT, LOCF), NFC-1 BID n = 46, p <0.05 vs placebo

O=C1CC[C@H](C(=O)N2CCCCC2)N1 [Fasoracetam, (+)-5-oxo-D-prolinepiperidinamide]
bioavailable [1]: 79%-97%
half-life [1]: 5 to 6.5 h
stimulation of mGluRs [2]: can stimulate both group I and group II/III mGluRs

O=C1CC[C@H](C(=O)N2CCCCC2)N1 [NFC-1, fasoracetam monohydrate]
difference between placebo and NFC-1 in ADHD-RS-5 total score change from Baseline to LOCF endpoint (primary endpoint) ([3]; ITT, overall population, optimized dose 100, 200 or 400 mg BID): not significant
Response (% reduction in ADHD-RS score at endpoint from baseline) ([3]; Table 16, individual subjects with CNV in CNTN4 in the NFC-1-treated group, monohydrate): −41.46% and −35.9% and −77.42% and −70% and −62.5% and −48.65%
Response (change from baseline in ADHD RS-5 total score) [3, 9]: −65%
Response (change from baseline in ADHD RS-5 total score) [3, 10]: −33.3333%
Response (change from baseline in ADHD RS-5 total score) [3, 11]: −37.5%
Response (change from baseline in ADHD RS-5 total score) [3, 12]: −76.9231%
Response (change from baseline in ADHD RS-5 total score) ([3]; NFC-1-treated patients with CNV in GRM8, monohydrate): −48.2759% and −39.0244%
TEAE: Upper respiratory tract infection, % of subjects [4]: 4%
difference between treatment groups in remission [5]: no significant difference
Responder? (Y/N) [6, 9]: Y (“Responder” indicates a 30% or greater reduction from baseline in ADHD RS-5 total score)
Responder? (Y/N) [6, 10]: Y (“Responder” indicates a 30% or greater reduction from baseline in ADHD RS-5 total score)
Responder? (Y/N) [6, 11]: Y (“Responder” indicates a 30% or greater reduction from baseline in ADHD RS-5 total score)
Responder? (Y/N) [6, 12]: Y (“Responder” indicates a 30% or greater reduction from baseline in ADHD RS-5 total score)
Responder? (Y/N) ([6]; NFC-1-treated patients with CNV in CNTN4): Y (“Responder” indicates a 30% or greater reduction from baseline in ADHD RS-5 total score)
Responder? (Y/N) ([6]; NFC-1-treated patients with CNV in GRM8): Y (“Responder” indicates a 30% or greater reduction from baseline in ADHD RS-5 total score)
ADHD-RS-5 Total Score: ≥30% Reduction from Baseline, % of subjects [6, 13]: 88% (15)
CGI-I Score 1 or 2, % of subjects [6, 13]: 76% (13)
Composite response, % of subjects [6, 13]: 76% (13)
ADHD-RS-5 Total Score: ≥30% Reduction from Baseline, % of subjects ([6]; study end (LOCF), CNTN4 Subset, NFC-1 BID n = 6, p <0.005 vs placebo): 100% (6)
CGI-I Score 1 or 2, % of subjects [6, 14]: 83% (5)
Composite response, % of subjects [6, 14]: 83% (5)
patients with 30% or greater reduction from baseline in ADHD RS-5 total score ([6]; subjects with a CNV in CNTN4 assigned to NFC-1): 6/6
ADHD RS-5 Total Score: ≥30% Reduction from Baseline, % of subjects ([6]; treatment response at endpoint (ITT, LOCF), NFC-1 BID n = 46, p <0.01 vs placebo): 70% (32)
CGI-I Score 1 or 2, % of subjects [6, 15]: 57% (26)
Composite response, % of subjects [6, 15]: 57% (26)
subjects in whom dosing with the highest dose (400 mg BID) was achieved ([7]; human, 4 weeks): 91%
Any TEAE, % of subjects ([7]; human, 6 weeks): 70%
Discontinuations due to TEAEs, % of subjects ([7]; human, 6 weeks): 6%
TEAE: Accidental overdose, % of subjects ([7]; human, 6 weeks): 11%
TEAE: Appetite increased, % of subjects ([7]; human, 6 weeks): 6%
TEAE: Fatigue, % of subjects ([7]; human, 6 weeks): 15%
TEAE: Headache, % of subjects ([7]; human, 6 weeks): 9%
TEAE: Irritability, % of subjects ([7]; human, 6 weeks): 2%
TEAE: Nasopharyngitis, % of subjects ([7]; human, 6 weeks): 2%
TEAE: Nausea, % of subjects ([7]; human, 6 weeks): 6%
TEAE: Weight increased, % of subjects ([7]; human, 6 weeks): 15%
overall tolerability [7]: generally well-tolerated
serious TEAEs [7]: No serious TEAEs were reported
severity of TEAEs [7]: majority of TEAEs were mild-to-moderate
safety and tolerability ([8]; Phase I-III trials, dementia indications): generally safe and well tolerated
effects on psychiatric symptoms ([8]; Phase III data, cerebral infarct patients and adult dementia patients with cerebrovascular diseases): beneficial effects
efficacy in dementia ([8]; Phase III trials): did not show sufficient efficacy
effects on learning and memory (animal models): Positive effects

NC(=O)CN1CCCC1=O [piracetam]
effect on ADHD symptoms compared to placebo control (pediatric ADHD subjects): increase ADHD symptoms
